Converted amounts (≈) assume the structure as drawn. Read-outs that look alike come from different tables or passages of the source.
Columns and labels:
S. aureus ATCC 29213 [1] = experiment: MIC by broth microdilution, S. aureus ATCC 29213; assay type: cell-based; details: S. aureus (ATCC 29213), Mueller Hinton Broth, polypropylene plate; for MIC: read-out: MIC, Antibiotic Alone; for MIC, Antibiotic +NH2-triguan-6C / MIC, Antibiotic +NO2-triamine-2C / MIC, Antibiotic +NO2-triamine-6C: non-covalent mixture
Method: (§1) Methods—Determination of MICs: MICs for S. aureus, E. faecium, E. coli, P aeruginosa, A. baumannii, K. pneumoniae were determined using broth microdilution in accordance with CLSI methods (Wiegand, I.; Hilpert, K.; Hancock, R. E. W. Agar and Broth Dilution Methods to Determine the Minimal Inhibitory Concentration (MIC) of Antimicrobial Substances. Nat. Protoc. 2008, 3, 163-175). One day prior to each MIC experiment, bacterial strains were streaked for single colonies on TSA plates from frozen glycerol stocks stored at −80° C. Three to five colonies from each plate were harvested with a disposable inoculating loop and resuspended in 500 μL of PBS to create a bacterial suspension. Alternatively, a single colony of the appropriate bacterial strain was added to 4 mL TSB for overnight growth at 37° C. with 200 rpm shaking to create a stationary phase bacterial suspension. The suspension was diluted in PBS to an OD600 of 0.1 (˜[…] CFU/ml), and the OD 0.1 suspension was diluted 1:100 in Mueller Hinton broth (MHB, Difco 257530) just prior to inoculating the 96-well polypropylene treatment plate (Costar 3879). A 50 μL portion of inoculum was added to a treatment plate containing 2-fold serial dilutions of compound in MHB (50 μL of treatment/well) to lend a final total volume of 100 μL/well and a final inoculum density of ˜5×10^5 CFU/ml. The completed assay plate was sealed with Parafilm, placed in a lidded plastic tray lined with moistened paper towels, and incubated at 37° C. for approximately 20 hours. The MIC was read as the lowest treatment concentration where no bacterial growth occurred, as determined by OD600 measurements on a microplate reader. If a different plate or media type was used for a particular test, this is noted below the respective table.

S. aureus ATCC 29213 [2] = details: cited from earlier work
E. coli ATCC 25922 [3] = experiment: MIC by broth microdilution, E. coli ATCC 25922; assay type: cell-based; details: E. coli (ATCC 25922)
Method: as §1

E. coli ATCC 25922 [4] = details: cited from earlier work
[5] = Staphylococcus aureus, ATCC29213, 20 h

Row | Compound | MIC (S. aureus ATCC 29213 [1]) [µM] | MIC, Antibiotic +NH2-triguan-6C (S. aureus ATCC 29213 [1]) [µM] | MIC, Antibiotic +NO2-triamine-2C (S. aureus ATCC 29213 [1]) [µM] | MIC, Antibiotic +NO2-triamine-6C (S. aureus ATCC 29213 [1]) [µM] | Literature MIC (S. aureus ATCC 29213 [2]) [µM] | MIC (S. aureus ATCC 29213 [1]; [5]) [µM] | MIC, Antibiotic Alone (E. coli ATCC 25922 [3]) [µM] | MIC, Antibiotic +NH2-triguan-6C (E. coli ATCC 25922 [3]; non-covalent mixture) [µM] | MIC, Antibiotic +NO2-triamine-2C (E. coli ATCC 25922 [3]; non-covalent mixture) [µM] | MIC, Antibiotic +NO2-triamine-6C (E. coli ATCC 25922 [3]; non-covalent mixture) [µM] | Literature MIC (E. coli ATCC 25922 [4]) [µM]
1 | CC1(C)S[C@@H]2[C@H](NC(=O)Cc3ccccc3)C(=O)N2[C@H]1C(=O)O [Penicillin G] | 2 (≈ 0.669 µg/mL) | 2 (≈ 0.669 µg/mL) | 4 (≈ 1.34 µg/mL) | 4 (≈ 1.34 µg/mL) | 0.084 to 5.6 |  |  |  |  |  | 
2 | O=C1CN(/N=C/c2ccc([N+](=O)[O-])o2)C(=O)N1 [Nitrofurantoin] |  | 128 (≈ 30.5 µg/mL) | 256 (≈ 61 µg/mL) | 256 (≈ 61 µg/mL) |  | 128 (≈ 30.5 µg/mL) |  |  |  |  | 
3 | O=C(N[C@H](CO)[C@H](O)c1ccc([N+](=O)[O-])cc1)C(Cl)Cl [Chloramphenicol] |  | 32 (≈ 10.3 µg/mL) | 32 (≈ 10.3 µg/mL) | 32 (≈ 10.3 µg/mL) | 6 to 50 | 32 (≈ 10.3 µg/mL) | 16 (≈ 5.17 µg/mL) | 16 (≈ 5.17 µg/mL) | 16 (≈ 5.17 µg/mL) | 16 (≈ 5.17 µg/mL) | 6 to 25
4 | CO[C@H]1/C=C/O[C@@]2(C)Oc3c(C)c(O)c4c(O)c(c(/C=N/N5CCN(C)CC5)c(O)c4c3C2=O)NC(=O)/C(C)=C\C=C\[C@H](C)[C@H](O)[C@@H](C)[C@@H](O)[C@@H](C)[C@H](OC(C)=O)[C@@H]1C [Rifampicin] |  | 0.016 (≈ 0.0132 µg/mL) | 0.016 (≈ 0.0132 µg/mL) | 0.016 (≈ 0.0132 µg/mL) |  | 0.016 (≈ 0.0132 µg/mL) |  |  |  |  | 
5 | O=C(O)c1cn(C2CC2)c2cc(N3CCNCC3)c(F)cc2c1=O [Ciprofloxacin] |  |  |  |  | 0.4 to 1.5 |  |  |  |  |  | 
6 | Gentamicin | 0.5 | 0.5 | 0.5 | 1 | 0.26 to 2.1 |  |  |  |  |  | 
